{
  "source": "paper PMC13576449",
  "about": "“Small-Molecule Activators of PRMT1: Discovery, SAR Analyses, and Proapoptotic Effects in Pancreatic Cancer Cells” (Journal of Medicinal Chemistry, 2026)",
  "data": [
    {"target": "T1, FLAG-tagged PRMT6 (Homo sapiens, UniProt Q96LA8)", "T1 construct": "The complete ORFs of human PRMT3 and PRMT6 were inserted; made in house; host or cells: Sf9 insect cells (baculovirus)", "T1 sequence (Q96LA8 whole entry)": "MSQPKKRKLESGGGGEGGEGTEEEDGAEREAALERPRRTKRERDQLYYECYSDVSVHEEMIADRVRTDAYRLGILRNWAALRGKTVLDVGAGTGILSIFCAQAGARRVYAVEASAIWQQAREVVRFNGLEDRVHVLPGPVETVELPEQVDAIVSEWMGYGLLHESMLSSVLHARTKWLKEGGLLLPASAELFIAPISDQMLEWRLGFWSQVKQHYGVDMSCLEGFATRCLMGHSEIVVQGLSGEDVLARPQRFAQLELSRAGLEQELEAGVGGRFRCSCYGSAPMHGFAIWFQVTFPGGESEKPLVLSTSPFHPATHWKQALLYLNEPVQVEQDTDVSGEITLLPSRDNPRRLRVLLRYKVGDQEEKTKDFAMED", "experiment": "Fluorescence-based in vitro PRMT assay (F-PRMT assay), PRMT6", "type": "biochemical", "conditions": "Table S2; 100 µM compound, vs solvent control = 100%, n=3; racemates used", "text": "(§1) To evaluate the effects of the selected candidate molecules on the catalytic activity of type I enzymes, we employed a quantitative fluorescence-based in vitro PRMT activity (F-PRMT) assay using recombinant FLAG-tagged PRMT proteins expressed and affinity-purified from baculovirus-infected Sf9 cells (SI Figure S1, SI Figure S2A).\n(§2) Human cell lines (PaTu8988T, PANC-1) were obtained from ATCC (American Type Culture Collection) and cultured in DMEM supplemented with 10% fetal calf serum (FCS, Gibco/BRL), 1% penicillin/streptomycin at 37 °C and 5% CO2. […] For PRMT1 inhibition, cells were treated with type I PRMT inhibitor MS023 hydrochloride (Biomol). For induction of genotoxic stress, cells were treated with gemcitabine (LC Laboratories). […] The following plasmids were used: pFASTBAC-FLAG-rat PRMT1, pFASTBAC-FLAG-mouse PRMT4, and pGEX-GAR. The complete ORFs of human PRMT3 and PRMT6 were inserted into the pFASTBAC HT-3xFLAG B vector via BamHI/HindIII and BamHI/XhoI sites, respectively.\n(§3) For PRMT protein expression in insect cells, recombinant baculovirus (bacmid) was generated using the Bac-to-Bac baculovirus system (Invitrogen). Sf9 cells were transfected with bacmid DNA using X-tremeGENE HP DNA transfection reagent (Sigma-Aldrich) according to the manufacturer's instructions. After 3–5 days, supernatants were collected, filtered, and used to infect Sf9 cells to amplify the virus. After 2 rounds of virus amplification and estimation of the final P3 virus titer, the P3 virus (2–5 μL/10^6 cells) was applied for large-scale infection of 200 × 10^6 Sf9 cells in suspension culture at a density of 1 × 10^6 cells/mL. Cells were harvested 5–6 days post-infection by centrifugation at 500 g for 5 min at room temperature. Protein purification from baculovirus-infected Sf9 cells was performed as previously described. , Cells were lysed in BC buffer (20 mM HEPES pH 7.9, 250 mM NaCl, 10% (v/v) glycerin, 0.4 mM EDTA, 1 mM DTT) containing a protease inhibitor cocktail (Roche) by 3 freeze-thaw cycles. After centrifugation at 11,000 rpm (Sorval SS34 rotor) and 4 °C for 1 h, the supernatant (whole cell protein extract) was incubated with anti-FLAG M2 Affinity Gel (Cytiva) at 4 °C and under agitation for 4 h. Subsequently, beads were washed in BC buffer containing various NaCl concentrations (once in BC with 1 M NaCl, twice in BC with 500 mM NaCl, twice in BC with 250 mM NaCl and twice in BC with 100 mM NaCl). FLAG-tagged proteins were either maintained bead-bound as a 50% (v/v) slurry in BC buffer with 100 mM NaCl and stored at −80 °C or were eluted in the appropriate elution buffer (depending on the subsequent assay) containing 0.25 mg/mL 3xFLAG peptides (Sigma-Aldrich) at 4 °C for 30–45 min. To remove the FLAG-peptides from the eluate, dialysis was performed in elution buffer containing 10% (v/v) glycerol at 4 °C for 4–6 h using Slide-A-Lyzer Dialysis Devices (Thermo Fisher Scientific) according to the manufacturer’s recommendations.\n(§4) In the first step, the fluorogenic substrate Nα-Benzoyl-L-arginine-7-amido-4-methylcoumarin (Bz-Arg-AMC, Sigma-Aldrich) undergoes methylation by PRMTs upon the addition of the cofactor SAM. In the second reaction step, trypsin cleaves the nonmethylated substrate, leading to the generation of the 7-amino-4-methylcoumarin product, which can be quantified by subsequent fluorescence measurement (excitation: 355 nm, emission: 460 nm). The first reaction was conducted with bead-bound PRMTs at a total volume of 100 μL. Each condition was performed as a technical triplicate to determine the mean and the standard deviation. […] For the negative controls, SAM was substituted with assay buffer. The incubation was continued at 37 °C and under agitation (1,000 rpm) for a duration of 2 h.", "values": [
      {"smiles": "CC(C)N(CCCOCc1ccccc1)CC(=N)NO", "note": "[Compound K600JK007]", "Experimental result (PRMT6)": "n.e. (did not significantly affect the catalytic activity of the intended PRMT (less than ±6% change or not significant p-value), are marked with n.e. (no effect))"},
      {"smiles": "NCCCCNCc1cc(Br)cs1", "note": "[Compound K002JS012]", "Experimental result (PRMT6)": "n.e. (did not significantly affect the catalytic activity of the intended PRMT (less than ±6% change or not significant p-value), are marked with n.e. (no effect))"},
      {"smiles": "CNCC(=O)NCCc1ccc(OC)c(OC)c1", "note": "[Compound K002JS002]", "Experimental result (PRMT6)": "n.e. (did not significantly affect the catalytic activity of the intended PRMT (less than ±6% change or not significant p-value), are marked with n.e. (no effect))"},
      {"smiles": "COc1cc(CNCCN(C)C)ccc1OCc1nc(C)no1", "note": "[Compound K002FT011]", "Experimental result (PRMT6)": "n.e. (did not significantly affect the catalytic activity of the intended PRMT (less than ±6% change or not significant p-value), are marked with n.e. (no effect))"},
      {"smiles": "CN(C)CC(=O)Nc1cnccc1N1CCOCC1", "note": "[Compound K002FT018]", "Experimental result (PRMT6)": "n.e. (did not significantly affect the catalytic activity of the intended PRMT (less than ±6% change or not significant p-value), are marked with n.e. (no effect))"},
      {"smiles": "COc1ccc(Cl)cc1NC(=O)[C@@H]1CCCN1", "note": "(racemic) [Compound K002JS001]", "Experimental result (PRMT6)": "n.e. (did not significantly affect the catalytic activity of the intended PRMT (less than ±6% change or not significant p-value), are marked with n.e. (no effect))"},
      {"smiles": "O=[N+]([O-])c1ccc(Sc2n[nH]c(Cc3ccccc3)n2)nc1", "note": "[Compound K002JS015]", "Experimental result (PRMT6)": "n.e. (did not significantly affect the catalytic activity of the intended PRMT (less than ±6% change or not significant p-value), are marked with n.e. (no effect))"},
      {"smiles": "OC1(c2c[nH]nn2)CCN(CCOc2ccc(Cl)cc2)C1", "note": "(centres unmarked) [Compound K002JS017]", "Experimental result (PRMT6)": "n.e. (did not significantly affect the catalytic activity of the intended PRMT (less than ±6% change or not significant p-value), are marked with n.e. (no effect))"},
      {"smiles": "CCNc1nc(C)cc(NCCNC(=O)Cc2ccc(F)cc2)n1", "note": "[Compound K002FT003]", "Experimental result (PRMT6)": "n.e. (did not significantly affect the catalytic activity of the intended PRMT (less than ±6% change or not significant p-value), are marked with n.e. (no effect))"},
      {"smiles": "Cc1cccc(-n2ncc3c(NCCN(C)C)ncnc32)c1", "note": "[Compound K002FT004]", "Experimental result (PRMT6)": "n.e. (did not significantly affect the catalytic activity of the intended PRMT (less than ±6% change or not significant p-value), are marked with n.e. (no effect))"},
      {"smiles": "CCN(CCCC(=O)Nc1cccc(C)c1)C1CNC1", "note": "[Compound K600JK005]", "Experimental result (PRMT6)": "n.e. (did not significantly affect the catalytic activity of the intended PRMT (less than ±6% change or not significant p-value), are marked with n.e. (no effect))"},
      {"smiles": "CN[C@H](CO)c1cc(OC)ccc1Br", "note": "(racemic) [Compound K002FT016]", "Experimental result (PRMT6)": "n.e. (did not significantly affect the catalytic activity of the intended PRMT (less than ±6% change or not significant p-value), are marked with n.e. (no effect))"},
      {"smiles": "CN1CC[C@@](O)(CNCCc2cccc(OC(F)(F)F)c2)C1", "note": "(racemic) [Compound K600JK012]", "Experimental result (PRMT6)": "n.e. (did not significantly affect the catalytic activity of the intended PRMT (less than ±6% change or not significant p-value), are marked with n.e. (no effect))"},
      {"smiles": "c1ccc2oc(C3CCN(Cc4c[nH]cn4)CC3)nc2c1", "note": "[Compound K002FT015]", "Experimental result (PRMT6)": "n.e. (did not significantly affect the catalytic activity of the intended PRMT (less than ±6% change or not significant p-value), are marked with n.e. (no effect))"},
      {"smiles": "COCC1(CNCc2nnc([C@H]3C[C@H](N)C3)n2C2CC2)CC1", "note": "[Compound K002FT002]", "Experimental result (PRMT6)": "n.e. (did not significantly affect the catalytic activity of the intended PRMT (less than ±6% change or not significant p-value), are marked with n.e. (no effect))"},
      {"smiles": "CN(C)CCNc1ncnc2cc(-c3ccc(F)cc3)sc12", "note": "[Compound K002FT005]", "Experimental result (PRMT6)": "n.e. (did not significantly affect the catalytic activity of the intended PRMT (less than ±6% change or not significant p-value), are marked with n.e. (no effect))"},
      {"smiles": "Nc1nccc(N2CC[C@@]3(CCCN(C4CCOCC4)C3=O)C2)n1", "note": "(racemic) [Compound K002JS009]", "Experimental result (PRMT6)": "n.e. (did not significantly affect the catalytic activity of the intended PRMT (less than ±6% change or not significant p-value), are marked with n.e. (no effect))"},
      {"smiles": "COc1cccc(NC(=O)CNCCC(N)=O)c1", "note": "[Compound K002JS005]", "Experimental result (PRMT6)": "n.e. (did not significantly affect the catalytic activity of the intended PRMT (less than ±6% change or not significant p-value), are marked with n.e. (no effect))"},
      {"smiles": "CCN(CC(=O)NCCc1cccc(Cl)c1)C1CNC1", "note": "[Compound K600JK006]", "Experimental result (PRMT6)": "n.e. (did not significantly affect the catalytic activity of the intended PRMT (less than ±6% change or not significant p-value), are marked with n.e. (no effect))"},
      {"smiles": "COc1cc(CNCCNCCO)cc(Cl)c1OC(C)C", "note": "[Compound K002FT001]", "Experimental result (PRMT6)": "n.e. (did not significantly affect the catalytic activity of the intended PRMT (less than ±6% change or not significant p-value), are marked with n.e. (no effect))"},
      {"smiles": "Cc1cc(NC(=O)CN(C)C)cc(N2CCN(C(C)C)CC2)c1", "note": "[Compound K002FT012]", "Experimental result (PRMT6)": "n.e. (did not significantly affect the catalytic activity of the intended PRMT (less than ±6% change or not significant p-value), are marked with n.e. (no effect))"},
      {"smiles": "CNCC1CCN(Cc2cc(F)ccc2C)CC1", "note": "[Compound K002FT009]", "Experimental result (PRMT6)": "n.e. (did not significantly affect the catalytic activity of the intended PRMT (less than ±6% change or not significant p-value), are marked with n.e. (no effect))"},
      {"smiles": "CC(C)(C)c1cccc(OCCNC2CC(CN)C2)c1", "note": "(centres unmarked) [Compound K600JK008]", "Experimental result (PRMT6)": "n.e. (did not significantly affect the catalytic activity of the intended PRMT (less than ±6% change or not significant p-value), are marked with n.e. (no effect))"},
      {"smiles": "CCc1c(-c2cccc3ccccc23)nc2ccc(NC(=O)CN)cn12", "note": "[Compound K002FT014]", "Experimental result (PRMT6)": "n.e. (did not significantly affect the catalytic activity of the intended PRMT (less than ±6% change or not significant p-value), are marked with n.e. (no effect))"},
      {"smiles": "Cc1nc(N)cc(NC[C@H]2CC(=O)N(c3ccccc3)C2)n1", "note": "(racemic) [Compound K002FT010]", "Experimental result (PRMT6)": "n.e. (did not significantly affect the catalytic activity of the intended PRMT (less than ±6% change or not significant p-value), are marked with n.e. (no effect))"},
      {"smiles": "Clc1ccc(N2CCN(c3ncnc4[nH]ccc34)CC2)nc1", "note": "[Compound K002FT013]", "Experimental result (PRMT6)": "n.e. (did not significantly affect the catalytic activity of the intended PRMT (less than ±6% change or not significant p-value), are marked with n.e. (no effect))"},
      {"smiles": "COc1cc(CNCCO)ccc1Oc1nnnn1-c1ccccc1", "note": "[Compound K002FT006]", "Experimental result (PRMT6)": "n.e. (did not significantly affect the catalytic activity of the intended PRMT (less than ±6% change or not significant p-value), are marked with n.e. (no effect))"},
      {"smiles": "CNCCNC(=O)NC[C@@]12CNC[C@@]1(C(F)(F)F)C2", "note": "(racemic) [Compound K600JK013]", "Experimental result (PRMT6)": "n.e. (did not significantly affect the catalytic activity of the intended PRMT (less than ±6% change or not significant p-value), are marked with n.e. (no effect))"}
    ]},
    {"target": "T1, FLAG-tagged PRMT6", "experiment": "Fluorescence-based in vitro PRMT assay (F-PRMT assay), PRMT6", "type": "biochemical", "conditions": "Table S2; 100 µM compound; mean % difference vs solvent control (100%), n=3", "text": "as §1, §2, §3, §4", "units": {"Efficacy ±∆% (PRMT6)": "%"}, "values": [
      {"smiles": "Cc1cc(NCCc2nc(C)cc(=O)[nH]2)nc(N2CCCCC2)n1", "note": "[Compound K002FT008]", "Efficacy ±∆% (PRMT6)": -10}
    ]}
  ]
}
